Where “and” joins values, the source holds several entries; their conditions need not be identical. Equal values may be shown once.
How the values were obtained:
DU145 cells = test: Anti-proliferation activity assay (CCK8, 72 h); format: cell-based, human; settings: for Relative proliferation rate (%) mean / Relative proliferation rate (%) / optical density: DU145; for Relative proliferation rate (%) / optical density: replicates
PC-3 cells = test: Anti-proliferation activity assay (CCK8, 72 h); format: cell-based, human; settings: for Relative proliferation rate (%) mean / Relative proliferation rate (%) / optical density: PC-3; for Relative proliferation rate (%) / optical density: replicates
DYRK1B = target: T1, DYRK1B (Homo sapiens, UniProt Q9Y463); test: DYRKs kinase activity assay (33P-ATP, DYRKtide substrate): DYRK1B; format: biochemical
T1 construct: purchased Reaction Biology Corporation (assay service)

[1] = target: T2, panel of 370 protein kinases (Homo sapiens, UniProt Q9H4A3); test: Kinase inhibitor specificity profiling (Reaction Biology Corporation); format: biochemical; design: % Enzyme Activity (relative to DMSO controls): concentration or dose not given beside the values; settings: kinase WNK1
T2 construct: purchased Reaction Biology Corporation (assay service)

[2] = target: T3, panel of 370 protein kinases (Homo sapiens, UniProt Q9Y2K2); test: as above; format: biochemical; design: % Enzyme Activity (relative to DMSO controls): concentration or dose not given beside the values; settings: kinase SIK3
T3 construct: purchased Reaction Biology Corporation (assay service)

DU145 xenograft = test: H&E and Ki67 staining of xenograft tumor tissues; format: in vivo, BALB/c nude mice; settings: replicates
PC-3 xenograft = test: In vivo antitumor activity, PC-3 xenograft mouse model; design: species or system BALB/c nude mice; settings: 100 mg/kg (block headed at r39)

T1 sequence (Q9Y463 whole entry): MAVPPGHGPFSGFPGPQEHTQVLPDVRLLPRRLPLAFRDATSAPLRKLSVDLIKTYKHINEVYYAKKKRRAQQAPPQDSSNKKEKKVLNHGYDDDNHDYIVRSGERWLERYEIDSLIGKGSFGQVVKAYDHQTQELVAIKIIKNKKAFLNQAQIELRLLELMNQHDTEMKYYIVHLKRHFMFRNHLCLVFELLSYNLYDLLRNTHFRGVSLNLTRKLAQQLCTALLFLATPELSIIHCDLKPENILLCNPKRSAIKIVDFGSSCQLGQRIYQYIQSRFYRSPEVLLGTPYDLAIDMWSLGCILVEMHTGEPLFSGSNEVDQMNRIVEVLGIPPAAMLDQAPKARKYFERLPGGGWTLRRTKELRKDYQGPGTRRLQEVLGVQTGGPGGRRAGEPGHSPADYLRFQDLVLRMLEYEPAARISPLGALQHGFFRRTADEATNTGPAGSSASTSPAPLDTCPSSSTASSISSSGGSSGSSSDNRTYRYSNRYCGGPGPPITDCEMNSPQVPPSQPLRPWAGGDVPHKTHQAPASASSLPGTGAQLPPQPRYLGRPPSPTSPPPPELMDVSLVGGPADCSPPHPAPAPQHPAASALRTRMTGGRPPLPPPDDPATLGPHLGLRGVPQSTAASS
T3 sequence (Q9Y2K2 whole entry): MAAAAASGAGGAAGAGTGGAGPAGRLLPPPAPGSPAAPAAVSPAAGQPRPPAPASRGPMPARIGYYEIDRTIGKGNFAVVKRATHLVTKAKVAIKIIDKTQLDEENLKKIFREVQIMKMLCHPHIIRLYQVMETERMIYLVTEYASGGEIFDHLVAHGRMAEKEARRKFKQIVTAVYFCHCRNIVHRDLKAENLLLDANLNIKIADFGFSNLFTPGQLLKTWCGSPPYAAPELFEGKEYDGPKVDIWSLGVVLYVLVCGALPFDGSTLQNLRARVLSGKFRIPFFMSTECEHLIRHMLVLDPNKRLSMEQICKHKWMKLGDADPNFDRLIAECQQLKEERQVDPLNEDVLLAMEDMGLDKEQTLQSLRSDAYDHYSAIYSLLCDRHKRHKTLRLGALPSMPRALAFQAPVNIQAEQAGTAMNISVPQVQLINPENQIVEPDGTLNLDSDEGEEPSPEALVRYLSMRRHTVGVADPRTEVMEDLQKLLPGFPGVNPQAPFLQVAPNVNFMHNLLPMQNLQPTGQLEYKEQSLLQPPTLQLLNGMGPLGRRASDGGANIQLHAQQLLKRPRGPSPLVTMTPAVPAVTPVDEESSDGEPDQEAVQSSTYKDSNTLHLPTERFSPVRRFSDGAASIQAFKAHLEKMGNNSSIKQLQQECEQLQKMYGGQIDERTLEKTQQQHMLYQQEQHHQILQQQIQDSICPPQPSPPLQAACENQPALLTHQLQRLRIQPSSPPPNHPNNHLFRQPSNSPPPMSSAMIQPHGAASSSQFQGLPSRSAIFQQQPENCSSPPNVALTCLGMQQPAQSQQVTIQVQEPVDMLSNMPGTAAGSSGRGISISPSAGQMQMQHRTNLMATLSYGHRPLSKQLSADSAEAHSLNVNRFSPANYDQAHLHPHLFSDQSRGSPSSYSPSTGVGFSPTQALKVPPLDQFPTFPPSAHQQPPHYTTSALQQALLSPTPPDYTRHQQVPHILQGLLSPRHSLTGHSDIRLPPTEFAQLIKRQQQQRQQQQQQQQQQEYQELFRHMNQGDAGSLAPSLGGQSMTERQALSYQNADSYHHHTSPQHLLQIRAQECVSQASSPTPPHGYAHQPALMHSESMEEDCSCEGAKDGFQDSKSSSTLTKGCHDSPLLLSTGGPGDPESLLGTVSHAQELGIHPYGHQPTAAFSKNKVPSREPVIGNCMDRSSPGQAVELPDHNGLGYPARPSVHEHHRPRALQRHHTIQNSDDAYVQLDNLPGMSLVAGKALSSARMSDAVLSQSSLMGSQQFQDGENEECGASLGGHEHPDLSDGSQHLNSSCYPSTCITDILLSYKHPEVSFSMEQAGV
T2 sequence (Q9H4A3 whole entry): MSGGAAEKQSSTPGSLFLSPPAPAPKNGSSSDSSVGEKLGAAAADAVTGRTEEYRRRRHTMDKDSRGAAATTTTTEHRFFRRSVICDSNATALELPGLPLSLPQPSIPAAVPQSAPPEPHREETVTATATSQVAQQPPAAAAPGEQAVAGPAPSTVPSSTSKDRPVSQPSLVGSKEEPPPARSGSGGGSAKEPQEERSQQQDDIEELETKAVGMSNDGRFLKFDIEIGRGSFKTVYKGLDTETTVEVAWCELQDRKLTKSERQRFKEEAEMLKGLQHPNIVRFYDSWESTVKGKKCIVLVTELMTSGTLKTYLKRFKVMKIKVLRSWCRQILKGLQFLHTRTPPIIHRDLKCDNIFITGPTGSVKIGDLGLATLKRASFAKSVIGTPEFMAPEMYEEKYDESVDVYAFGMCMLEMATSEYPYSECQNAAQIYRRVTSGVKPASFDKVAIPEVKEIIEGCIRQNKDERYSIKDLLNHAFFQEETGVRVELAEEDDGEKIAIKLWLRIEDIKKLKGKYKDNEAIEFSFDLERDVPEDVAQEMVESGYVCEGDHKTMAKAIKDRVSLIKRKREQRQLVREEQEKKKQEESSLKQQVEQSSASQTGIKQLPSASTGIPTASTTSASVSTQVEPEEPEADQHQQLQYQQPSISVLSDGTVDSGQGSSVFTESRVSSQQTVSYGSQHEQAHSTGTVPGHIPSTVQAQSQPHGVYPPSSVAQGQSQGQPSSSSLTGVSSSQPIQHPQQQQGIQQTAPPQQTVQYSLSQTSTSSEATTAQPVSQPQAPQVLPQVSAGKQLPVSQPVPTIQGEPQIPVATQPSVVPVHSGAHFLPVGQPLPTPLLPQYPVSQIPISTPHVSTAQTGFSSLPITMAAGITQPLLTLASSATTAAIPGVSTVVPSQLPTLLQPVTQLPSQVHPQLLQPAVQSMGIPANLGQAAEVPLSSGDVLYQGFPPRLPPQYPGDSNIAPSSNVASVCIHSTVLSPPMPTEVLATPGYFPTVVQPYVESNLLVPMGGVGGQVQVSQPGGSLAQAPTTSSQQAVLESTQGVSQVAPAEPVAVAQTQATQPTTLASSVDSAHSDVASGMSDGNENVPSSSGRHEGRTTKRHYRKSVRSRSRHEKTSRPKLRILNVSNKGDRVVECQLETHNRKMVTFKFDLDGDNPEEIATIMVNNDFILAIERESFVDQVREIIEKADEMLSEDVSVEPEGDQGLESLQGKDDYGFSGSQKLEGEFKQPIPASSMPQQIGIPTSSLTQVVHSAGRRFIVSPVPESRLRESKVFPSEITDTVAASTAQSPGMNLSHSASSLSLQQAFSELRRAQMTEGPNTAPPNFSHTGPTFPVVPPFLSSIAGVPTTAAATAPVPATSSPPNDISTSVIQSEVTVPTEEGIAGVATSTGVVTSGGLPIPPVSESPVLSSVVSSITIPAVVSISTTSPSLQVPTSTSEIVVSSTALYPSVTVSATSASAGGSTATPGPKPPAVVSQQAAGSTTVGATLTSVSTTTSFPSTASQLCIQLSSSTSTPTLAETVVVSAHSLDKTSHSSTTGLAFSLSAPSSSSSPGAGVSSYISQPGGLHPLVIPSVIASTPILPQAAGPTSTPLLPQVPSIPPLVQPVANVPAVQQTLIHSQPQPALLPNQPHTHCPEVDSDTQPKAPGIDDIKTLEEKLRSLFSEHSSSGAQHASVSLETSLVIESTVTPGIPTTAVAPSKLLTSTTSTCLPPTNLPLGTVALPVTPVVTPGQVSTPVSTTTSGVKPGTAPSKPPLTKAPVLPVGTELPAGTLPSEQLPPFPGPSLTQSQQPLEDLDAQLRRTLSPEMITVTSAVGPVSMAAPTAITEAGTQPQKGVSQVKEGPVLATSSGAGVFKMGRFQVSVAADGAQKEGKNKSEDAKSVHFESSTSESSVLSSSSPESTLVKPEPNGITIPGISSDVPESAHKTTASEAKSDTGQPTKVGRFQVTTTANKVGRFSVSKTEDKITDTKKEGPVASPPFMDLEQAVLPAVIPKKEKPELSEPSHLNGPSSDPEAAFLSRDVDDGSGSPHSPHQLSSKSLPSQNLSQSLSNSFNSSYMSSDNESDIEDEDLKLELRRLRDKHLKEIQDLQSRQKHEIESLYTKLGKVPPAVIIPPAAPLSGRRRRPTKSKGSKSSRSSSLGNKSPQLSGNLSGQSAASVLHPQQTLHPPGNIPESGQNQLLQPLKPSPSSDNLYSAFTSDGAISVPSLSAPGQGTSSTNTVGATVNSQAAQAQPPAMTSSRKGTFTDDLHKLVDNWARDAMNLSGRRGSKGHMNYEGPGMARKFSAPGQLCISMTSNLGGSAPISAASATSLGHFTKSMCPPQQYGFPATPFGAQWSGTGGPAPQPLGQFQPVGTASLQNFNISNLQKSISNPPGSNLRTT

CCN1CCN(C(=O)c2ccc(Nc3ncc(F)c(-c4ccc5nc(N(C)C)sc5c4)n3)nc2)CC1 [YK-2-69]
Relative proliferation rate (%) mean (DU145 cells; 0.0049 uM): 5.845%
Relative proliferation rate (%) (DU145 cells; 0.0049 uM): 5.804% and 4.647% and 7.084%
optical density (DU145 cells; 0.0049 uM): 0.99 and 0.985 and 1.01
Relative proliferation rate (%) mean (DU145 cells; 0.078 uM): 13.2988%
Relative proliferation rate (%) (DU145 cells; 0.078 uM): 13.2255% and 9.1% and 17.5713%
optical density (DU145 cells; 0.078 uM): 0.912 and 0.939 and 0.896
Relative proliferation rate (%) mean (DU145 cells; 0.3125 uM): 23.3091%
Relative proliferation rate (%) (DU145 cells; 0.3125 uM): 23.3111% and 19.8451% and 26.7709%
optical density (DU145 cells; 0.3125 uM): 0.806 and 0.828 and 0.796
Relative proliferation rate (%) mean (DU145 cells; 1.25 uM): 41.9044%
Relative proliferation rate (%) (DU145 cells; 1.25 uM): 41.8649% and 39.6902% and 44.1582%
optical density (DU145 cells; 1.25 uM): 0.611 and 0.623 and 0.607
Relative proliferation rate (%) mean (DU145 cells; 5 uM): 55.1717%
Relative proliferation rate (%) (DU145 cells; 5 uM): 55.1855% and 52.3717% and 57.9577%
optical density (DU145 cells; 5 uM): 0.471 and 0.492 and 0.457
Relative proliferation rate (%) mean (DU145 cells; 20 uM): 69.2763%
Relative proliferation rate (%) (DU145 cells; 20 uM): 69.3625% and 65.0532% and 73.4131%
optical density (DU145 cells; 20 uM): 0.322 and 0.361 and 0.289
Relative proliferation rate (%) mean (DU145 cells; 80 uM): 80.2708%
Relative proliferation rate (%) (DU145 cells; 80 uM): 80.3045% and 75.4114% and 85.0966%
optical density (DU145 cells; 80 uM): 0.207 and 0.254 and 0.162
inhibitory activity against proliferation (in words) (DU145 cells; DU145 cells): potent inhibitory activity
IC50 (DU145 cells; Homo sapiens, DU-145, read-out: IC50 against proliferation): 3300 nM
IC50 (PC-3 cells; Homo sapiens, PC-3, read-out: IC50 against proliferation): 1070 nM
Relative proliferation rate (%) mean (PC-3 cells; 0.0049 uM): 6.648%
Relative proliferation rate (%) (PC-3 cells; 0.0049 uM): 6.621% and 4.33% and 8.993%
optical density (PC-3 cells; 0.0049 uM): 0.945 and 0.95 and 0.931
Relative proliferation rate (%) mean (PC-3 cells; 0.078 uM): 18.3188%
Relative proliferation rate (%) (PC-3 cells; 0.078 uM): 15.5138% and 18.3283% and 21.1144%
optical density (PC-3 cells; 0.078 uM): 0.855 and 0.811 and 0.807
Relative proliferation rate (%) mean (PC-3 cells; 0.3125 uM): 33.3383%
Relative proliferation rate (%) (PC-3 cells; 0.3125 uM): 28.6561% and 33.3333% and 38.0254%
optical density (PC-3 cells; 0.3125 uM): 0.722 and 0.662 and 0.634
Relative proliferation rate (%) mean (PC-3 cells; 1.25 uM): 54.3687%
Relative proliferation rate (%) (PC-3 cells; 1.25 uM): 47.8261% and 54.3807% and 60.8993%
optical density (PC-3 cells; 1.25 uM): 0.528 and 0.453 and 0.4
Relative proliferation rate (%) mean (PC-3 cells; 5 uM): 70.2315%
Relative proliferation rate (%) (PC-3 cells; 5 uM): 66.7984% and 70.1913% and 73.7048%
optical density (PC-3 cells; 5 uM): 0.336 and 0.296 and 0.269
Relative proliferation rate (%) mean (PC-3 cells; 20 uM): 81.0679%
Relative proliferation rate (%) (PC-3 cells; 20 uM): 78.6561% and 81.0675% and 83.48%
optical density (PC-3 cells; 20 uM): 0.216 and 0.188 and 0.169
Relative proliferation rate (%) mean (PC-3 cells; 80 uM): 88.776%
Relative proliferation rate (%) (PC-3 cells; 80 uM): 88.7352% and 82.578% and 95.0147%
optical density (PC-3 cells; 80 uM): 0.114 and 0.173 and 0.051
inhibitory activity against proliferation (in words) (PC-3 cells; PC-3 cells): potent inhibitory activity
IC50 (DYRK1B): 542 nM
% Inhibition DYRK1B (DYRK1B; 0.000762079 µM, duplicates): 3.06% and 6.85%
% Inhibition DYRK1B (DYRK1B; 0.00228624 µM, duplicates): 3.24%
inhibition at 0.00228624 µM (DYRK1B; 0.00228624 µM, duplicates): 5.73%
% Inhibition DYRK1B (DYRK1B; 0.00685871 µM, duplicates): 11.00%
inhibition at 0.00685871 µM (DYRK1B; 0.00685871 µM, duplicates): 7.22%
% Inhibition DYRK1B (DYRK1B; 0.0205761 µM, duplicates): 13.48%
inhibition at 0.0205761 µM (DYRK1B; 0.0205761 µM, duplicates): 9.47%
% Inhibition DYRK1B (DYRK1B; 0.0617284 µM, duplicates): 24.87%
inhibition at 0.0617284 µM (DYRK1B; 0.0617284 µM, duplicates): 26.4%
% Inhibition DYRK1B (DYRK1B; 0.185185 µM, duplicates): 44.86%
inhibition at 0.185185 µM (DYRK1B; 0.185185 µM, duplicates): 44.6%
% Inhibition DYRK1B (DYRK1B; 0.555556 µM, duplicates): 57.04%
inhibition at 0.555556 µM (DYRK1B; 0.555556 µM, duplicates): 57.3%
% Inhibition DYRK1B (DYRK1B; 1.66667 µM, duplicates): 62.26%
% Inhibition DYRK1B (DYRK1B; 5 µM, duplicates): 64.81%
inhibition at 5 µM (DYRK1B; 5 µM, duplicates): 65.1%
inhibition at 1.66667 µM (DYRK1B; read-out: % Inhibition DYRK1B, 1.66667 µM, duplicates): 62.7%
selectivity over DYRK1B (DYRK1B; vs DYRK2): 60 fold
% Enzyme Activity (relative to DMSO controls) [1]: 116.91% and 108.19%
% Enzyme Activity (relative to DMSO controls) [2]: 100.12% and 97.59%
Positive rate ( % ) (Fig. 7f) (DU145 xenograft; DU145, High dose): 15.32% and 14.77% and 16.1%
Positive rate ( % ) (Fig. 7f) (DU145 xenograft; DU145, Low dose): 20.24% and 19.5% and 21.1%
body weight (Figure S10b) (PC-3 xenograft; day 1, individual mice): 19.2 (2×) and 18.5 and 18.7 and 18.4 and 18.1 and 19.9 and 20.5
body weight (Figure S10b) (PC-3 xenograft; day 3, individual mice, in g (unit assumed)): 19.3 and 18.8 and 19.1 and 19.6 and 18.7 and 18.5 and 20.2 and 21
body weight (Figure S10b) (PC-3 xenograft; day 5, individual mice, in g (unit assumed)): 19.6 and 19.3 and 19.5 and 20 and 19 and 18.8 and 20.4 and 21.3
body weight (Figure S10b) (PC-3 xenograft; day 7, individual mice): 19.7 and 19.2 (2×) and 19.8 and 20.2 and 19.1 and 20.7 and 21.6
body weight (Figure S10b) (PC-3 xenograft; day 9, individual mice): 19.9 and 19.6 (2×) and 20.3 and 20.4 and 19.2 and 21.1 and 22.1
body weight (Figure S10b) (PC-3 xenograft; day 11, individual mice, in g (unit assumed)): 20.2 and 19.8 and 20.6 and 20.7 and 19.9 and 19.6 and 21.5 and 22.4
body weight (Figure S10b) (PC-3 xenograft; day 13, individual mice, in g (unit assumed)): 20.7 and 20.1 and 20.9 and 21 and 20.2 and 19.9 and 22 and 22.7
body weight (Figure S10b) (PC-3 xenograft; day 15, individual mice, in g (unit assumed)): 21.2 and 20.6 and 21.3 and 21.4 and 20.5 and 20.2 and 22.4 and 23.1
